Measurements from the supplement of paper PMC3937590.

Experiments:
Assay in all cases: -log10 GI50 (growth inhibition 50%) (-log10(M)); higher = more potent growth inhibition
HCC2185 = test system: HCC2185
How it was run: (§1)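 The reported figure is the negative logarithm of GI50, defined as the molar concentration that produces the set level of growth inhibition. The logarithm is base 10. It comes from a Gompertz curve fitted by nonlinear least squares to 72-hour luminescence data from breast cancer cell lines given nine doses in 1:5 serial dilution, in triplicate, with a time-zero plate as reference. A < qualifier marks values equal to the top dose.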

HCC1954 = test system: HCC1954
How it was run: as §1

HCC1937 = test system: HCC1937
How it was run: as §1

HCC1143 = test system: HCC1143
How it was run: as §1

CAMA1 = test system: CAMA1
How it was run: as §1

MCF10A = test system: MCF10A
How it was run: as §1

BT20 = test system: BT20
How it was run: as §1

BT549 = test system: BT549
How it was run: as §1

HCC70 = test system: HCC70
How it was run: as §1

MCF10F = test system: MCF10F
How it was run: as §1

SUM52PE = test system: SUM52PE
How it was run: as §1

MDAMB415 = test system: MDAMB415
How it was run: as §1

ZR75B = test system: ZR75B
How it was run: as §1

MDAMB453 = test system: MDAMB453
How it was run: as §1

MDAMB231 = test system: MDAMB231
How it was run: as §1

184A1 = test system: 184A1
How it was run: as §1

HCC3153 = test system: HCC3153
How it was run: as §1

HCC1419 = test system: HCC1419
How it was run: as §1

T47D = test system: T47D
How it was run: as §1

ZR751 = test system: ZR751
How it was run: as §1

BT483 = test system: BT483
How it was run: as §1

HCC38 = test system: HCC38
How it was run: as §1

HCC1806 = test system: HCC1806
How it was run: as §1

MCF7 = test system: MCF7
How it was run: as §1

UACC812 = test system: UACC812
How it was run: as §1

MDAMB361 = test system: MDAMB361
How it was run: as §1

HCC202 = test system: HCC202
How it was run: as §1

SKBR3 = test system: SKBR3
How it was run: as §1

SUM1315MO2 = test system: SUM1315MO2
How it was run: as §1

SUM149PT = test system: SUM149PT
How it was run: as §1

HCC1395 = test system: HCC1395
How it was run: as §1

MX1 = test system: MX1
How it was run: as §1

184B5 = test system: 184B5
How it was run: as §1

MDAMB175VII = test system: MDAMB175VII
How it was run: as §1

SUM225CWN = test system: SUM225CWN
How it was run: as §1

MDAMB157 = test system: MDAMB157
How it was run: as §1

AU565 = test system: AU565
How it was run: as §1

SUM229PE = test system: SUM229PE
How it was run: as §1

HCC1569 = test system: HCC1569
How it was run: as §1

HCC1428 = test system: HCC1428
How it was run: as §1

HCC1187 = test system: HCC1187
How it was run: as §1

SUM159PT = test system: SUM159PT
How it was run: as §1

MDAMB134VI = test system: MDAMB134VI
How it was run: as §1

T47D_KBluc = test system: T47D_KBluc
How it was run: as §1

BT474 = test system: BT474
How it was run: as §1

LY2 = test system: LY2
How it was run: as §1

HS578T = test system: HS578T
How it was run: as §1

MCF12A = test system: MCF12A
How it was run: as §1

600MPE = test system: 600MPE
How it was run: as §1

O=c1cc(-c2ccccc2)oc2cc(O)c(O)c(O)c12 [Baicalein]
-log10 GI50 (HCC2185): 4.3
-log10 GI50 (HCC1954): < 3.78
-log10 GI50 (HCC1937): 4.46
-log10 GI50 (HCC1143): 4.15
-log10 GI50 (CAMA1): 4.39
-log10 GI50 (MCF10A): 4.71
-log10 GI50 (BT20): 4.05
-log10 GI50 (BT549): 4.64
-log10 GI50 (HCC70): 4.31
-log10 GI50 (MCF10F): < 3.78
-log10 GI50 (SUM52PE): 4.42
-log10 GI50 (MDAMB415): < 3.78
-log10 GI50 (ZR75B): 4.36
-log10 GI50 (MDAMB453): 3.8
-log10 GI50 (MDAMB231): 4.75
-log10 GI50 (184A1): < 3.78
-log10 GI50 (HCC3153): 4.69
-log10 GI50 (HCC1419): 4.09
-log10 GI50 (T47D): 4.52
-log10 GI50 (ZR751): 4.38
-log10 GI50 (BT483): 4.44
-log10 GI50 (HCC38): 4.52
-log10 GI50 (HCC1806): 4.73
-log10 GI50 (MCF7): 4.3
-log10 GI50 (UACC812): 4.19
-log10 GI50 (MDAMB361): < 3.78
-log10 GI50 (HCC202): 4.41
-log10 GI50 (SKBR3): 3.96
-log10 GI50 (SUM1315MO2): 4.55
-log10 GI50 (SUM149PT): 4.29
-log10 GI50 (HCC1395): 4.73
-log10 GI50 (MX1): 4.66
-log10 GI50 (184B5): < 3.78
-log10 GI50 (MDAMB175VII): 3.96
-log10 GI50 (SUM225CWN): 4.43
-log10 GI50 (MDAMB157): 4.28
-log10 GI50 (AU565): 4.38
-log10 GI50 (SUM229PE): 4.08
-log10 GI50 (HCC1569): 4.33
-log10 GI50 (HCC1428): 4.41
-log10 GI50 (HCC1187): 4.94
-log10 GI50 (SUM159PT): 3.82
-log10 GI50 (MDAMB134VI): 4.07
-log10 GI50 (T47D_KBluc): 4
-log10 GI50 (BT474): 4.3
-log10 GI50 (LY2): 4.19
-log10 GI50 (HS578T): 4.32
-log10 GI50 (MCF12A): 4.78
-log10 GI50 (600MPE): < 3.78

O=c1[nH]c(=O)n([C@H]2C[C@H](O)[C@@H](CO)O2)cc1F [Floxuridine]
-log10 GI50 (HCC2185): 3.2
-log10 GI50 (HCC1954): 3.99
-log10 GI50 (HCC1937): 3.37
-log10 GI50 (HCC1143): 4.08
-log10 GI50 (CAMA1): 4.36
-log10 GI50 (MCF10A): 4.86
-log10 GI50 (BT20): 3.49
-log10 GI50 (BT549): 3.57
-log10 GI50 (HCC70): 3.67
-log10 GI50 (MCF10F): 4.34
-log10 GI50 (SUM52PE): 3.45
-log10 GI50 (MDAMB415): 4.5
-log10 GI50 (ZR75B): 5.16
-log10 GI50 (MDAMB453): 5.79
-log10 GI50 (MDAMB231): 3.32
-log10 GI50 (184A1): 3.67
-log10 GI50 (HCC3153): 3.11
-log10 GI50 (HCC1419): 2.73
-log10 GI50 (T47D): 3.48
-log10 GI50 (ZR751): 5.55
-log10 GI50 (BT483): 4.15
-log10 GI50 (HCC38): 3.79
-log10 GI50 (HCC1806): 4.02
-log10 GI50 (MCF7): 3.77
-log10 GI50 (UACC812): 4.11
-log10 GI50 (MDAMB361): 3.4
-log10 GI50 (SKBR3): 3.66
-log10 GI50 (SUM1315MO2): 3.18
-log10 GI50 (SUM149PT): 4.12
-log10 GI50 (HCC1395): 3.51
-log10 GI50 (MX1): 2.84
-log10 GI50 (184B5): 3.65
-log10 GI50 (MDAMB175VII): 4.69
-log10 GI50 (SUM225CWN): 3.53
-log10 GI50 (MDAMB157): 3.87
-log10 GI50 (AU565): 4.97
-log10 GI50 (SUM229PE): 4.16
-log10 GI50 (HCC1569): 3.38
-log10 GI50 (HCC1428): 4.04
-log10 GI50 (HCC1187): 3.81
-log10 GI50 (SUM159PT): 4.49
-log10 GI50 (MDAMB134VI): 3.2
-log10 GI50 (T47D_KBluc): 2.8
-log10 GI50 (BT474): 3.37
-log10 GI50 (LY2): 5.63
-log10 GI50 (HS578T): 3.52
-log10 GI50 (MCF12A): 4.86
-log10 GI50 (600MPE): 5.81
